Assay results as given in patent EP4603105A1, “PHARMACEUTICAL COMPOSITION CONTAINING CYCLIC COMPOUND HAVING SELECTIVE KRAS INHIBITORY EFFECT AGAINST HRAS AND NRAS” (CHUGAI SEIYAKU KABUSHIKI KAISHA, priority 2022, dated 2024).
pIC50: −log10 of the molar value. Where a SMILES comes first, the peptide text is derived from it. Bridges are numbered along the chain shown (N, C = ends). [ ]: non-standard residue; d: D form. hPhe(3-Cl-4-CF3) = N[C@@H](CCc1ccc(C(F)(F)F)c(Cl)c1)C(=O)O; NPrPhe(4-CF3) = CCCN[C@@H](Cc1ccc(C(F)(F)F)cc1)C(=O)O; NMeGly(cPent) = CN[C@H](C(=O)O)C1CCCC1; Pro(4,4-F2) = O=C(O)[C@@H]1CC(F)(F)CN1; Hyp = O=C(O)[C@@H]1C[C@@H](O)CN1; NMeD = CN[C@@H](CC(=O)O)C(=O)O; NMeL = CN[C@@H](CC(C)C)C(=O)O; NMeA = CN[C@@H](C)C(=O)O; Ac5c = NC1(C(=O)O)CCCC1; Aze = O=C(O)[C@@H]1CCN1; Ac4c = NC1(C(=O)O)CCC1; NEtG = CCNCC(=O)O; Sar = CNCC(=O)O

Key:
[1] = target: GDP-bound NRAS wild-type protein (Homo sapiens, UniProt P01111); assay: Binding to NRAS by surface plasmon resonance (SPR), KD and KD ratio to KRAS; settings: ratio of the KD value with respect to GDP-bound NRAS wild-type protein to the KD value with respect to KRAS
Outline: (§1)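 Affinity is measured by surface plasmon resonance at 30°C against captured, GDP-loaded RAS carrying a biotinylated Avi tag. Compounds are titrated by single-cycle kinetics, and KD comes from a 1:1 fit.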

[2] = test system: human lung cancer strain NCI-H441; format: cell-based
Outline: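 Readout: […] after the ATP-based reagent. Compound: serial dilutions in dimethyl sulfoxide.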

[3] = target: HRAS wild-type protein (Homo sapiens, UniProt P01112); assay: Binding to HRAS by surface plasmon resonance (SPR), KD and KD ratio to KRAS; settings: ratio of the KD value with respect to HRAS wild-type protein to the KD value with respect to KRAS
Outline: as §1

Chain of GDP-bound NRAS wild-type protein (P01111 whole entry): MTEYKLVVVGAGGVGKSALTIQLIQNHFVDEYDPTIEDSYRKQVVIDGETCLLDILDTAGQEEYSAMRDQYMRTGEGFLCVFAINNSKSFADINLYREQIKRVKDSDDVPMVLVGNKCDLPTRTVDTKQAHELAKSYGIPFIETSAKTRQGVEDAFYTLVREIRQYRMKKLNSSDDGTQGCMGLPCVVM
Chain of HRAS wild-type protein (P01112 whole entry): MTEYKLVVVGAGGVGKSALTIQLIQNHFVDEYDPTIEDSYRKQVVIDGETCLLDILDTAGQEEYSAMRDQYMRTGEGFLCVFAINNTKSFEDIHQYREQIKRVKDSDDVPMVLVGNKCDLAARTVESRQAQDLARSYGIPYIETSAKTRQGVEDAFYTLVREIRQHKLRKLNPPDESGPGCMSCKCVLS

| SMILES | pIC50 [2] | NRAS /KRAS [1] | HRAS /KRAS [3] |
| --- | --- | --- | --- |
| CCCN1C(=O)CN(C)C(=O)CN(CC)C(=O)[C@H]([C@@H](C)CC)NC(=O)[C@H](CC(C)C)N(C)C(=O)C[C@@H](C(=O)N(C)C)N(C)C(=O)[C@H](C2CCCC2)N(C)C(=O)C2(CCC2)NC(=O)[C@@H]2CCCN2C(=O)[C@H](CCc2ccc(C(F)(F)F)c(Cl)c2)NC(=O)CN(C)C(=O)[C@@H]1Cc1ccc(C(F)(F)F)cc1 [PP0424] ([NMeL]I[NEtG][Sar][NPrPhe(4-CF3)][Sar][hPhe(3-Cl-4-CF3)]P[Ac4c][NMeGly(cPent)][NMeD]-NMe2; lactam N-11) | 8.02 | B (a compound having 3 or more and less than 10 is denoted as B) | C (A compound having a KD ratio of 0.1 or more and less than 3 is denoted as C) |
| CCCN1C(=O)CN(C)C(=O)CN(CC)C(=O)[C@H]([C@@H](C)CC)NC(=O)[C@H](CC(C)C)N(C)C(=O)C[C@@H](C(=O)N(C)C)N(C)C(=O)[C@H](C2CCCC2)N(C)C(=O)C2(CCCC2)NC(=O)[C@@H]2CC(F)(F)CN2C(=O)[C@H](CCc2ccc(C(F)(F)F)c(Cl)c2)NC(=O)CN(C)C(=O)[C@@H]1Cc1ccc(C(F)(F)F)cc1 [PP0425] ([NMeL]I[NEtG][Sar][NPrPhe(4-CF3)][Sar][hPhe(3-Cl-4-CF3)][Pro(4,4-F2)][Ac5c][NMeGly(cPent)][NMeD]-NMe2; lactam N-11) | 8.19 | B (a compound having 3 or more and less than 10 is denoted as B) | C (A compound having a KD ratio of 0.1 or more and less than 3 is denoted as C) |
| CCCN1C(=O)CN(C)C(=O)CN(CC)C(=O)[C@H]([C@@H](C)CC)NC(=O)[C@H](CC(C)C)N(C)C(=O)C[C@@H](C(=O)N(C)C)N(C)C(=O)[C@H](C2CCCC2)N(C)C(=O)C2(CCC2)NC(=O)[C@@H]2CC(F)(F)CN2C(=O)[C@H](CCc2ccc(C(F)(F)F)c(Cl)c2)NC(=O)CN(C)C(=O)[C@@H]1Cc1ccc(C(F)(F)F)cc1 [PP0426] ([NMeL]I[NEtG][Sar][NPrPhe(4-CF3)][Sar][hPhe(3-Cl-4-CF3)][Pro(4,4-F2)][Ac4c][NMeGly(cPent)][NMeD]-NMe2; lactam N-11) | 8.32 | C (A compound having a KD ratio of 0.1 or more and less than 3 is denoted as C) | C (A compound having a KD ratio of 0.1 or more and less than 3 is denoted as C) |
| CCCN1C(=O)CN(C)C(=O)CN(CC)C(=O)[C@H]([C@@H](C)CC)NC(=O)[C@H](CC(C)C)N(C)C(=O)C[C@@H](C(=O)N(C)C)N(C)C(=O)[C@H](C2CCCC2)N(C)C(=O)C2(CCC2)NC(=O)[C@@H]2C[C@@H](OCC)CN2C(=O)[C@H](CCc2ccc(C(F)(F)F)c(Cl)c2)NC(=O)CN(C)C(=O)[C@@H]1Cc1ccc(C(F)(F)F)cc1 [PP0428] ([NMeL]I[NEtG][Sar][NPrPhe(4-CF3)][Sar][hPhe(3-Cl-4-CF3)][Hyp](Et)[Ac4c][NMeGly(cPent)][NMeD]-NMe2; lactam N-11) | 8.34 | B (a compound having 3 or more and less than 10 is denoted as B) | C (A compound having a KD ratio of 0.1 or more and less than 3 is denoted as C) |
| CCCN1C(=O)CN(C)C(=O)[C@@H]2CCN2C(=O)[C@H]([C@@H](C)CC)NC(=O)[C@H](CC(C)C)N(C)C(=O)C[C@@H](C(=O)N(C)C)N(C)C(=O)[C@H](C2CCCC2)N(C)C(=O)C2(CCC2)NC(=O)[C@@H]2CCCN2C(=O)[C@H](CCc2ccc(C(F)(F)F)c(Cl)c2)NC(=O)CN(C)C(=O)[C@@H]1Cc1ccc(C(F)(F)F)cc1 [PP0430] ([NMeL]I[Aze][Sar][NPrPhe(4-CF3)][Sar][hPhe(3-Cl-4-CF3)]P[Ac4c][NMeGly(cPent)][NMeD]-NMe2; lactam N-11) | 7.55 | B (a compound having 3 or more and less than 10 is denoted as B) | B (a compound having 3 or more and less than 10 is denoted as B) |
| CCCN1C(=O)CN(C)C(=O)[C@@H]2CCN2C(=O)[C@H]([C@@H](C)CC)NC(=O)[C@H](CC(C)C)N(C)C(=O)C[C@@H](C(=O)N(C)C)N(C)C(=O)[C@H](C2CCCC2)N(C)C(=O)C2(CCCC2)NC(=O)[C@@H]2C[C@@H](OCC)CN2C(=O)[C@H](CCc2ccc(C(F)(F)F)c(Cl)c2)NC(=O)CN(C)C(=O)[C@@H]1Cc1ccc(C(F)(F)F)cc1 [PP0433] ([NMeL]I[Aze][Sar][NPrPhe(4-CF3)][Sar][hPhe(3-Cl-4-CF3)][Hyp](Et)[Ac5c][NMeGly(cPent)][NMeD]-NMe2; lactam N-11) | 7.96 | B (a compound having 3 or more and less than 10 is denoted as B) | B (a compound having 3 or more and less than 10 is denoted as B) |

Now from value to compound, other results behind:

| pIC50 [2] | SMILES | NRAS /KRAS [1] | HRAS /KRAS [3] |
| --- | --- | --- | --- |
| 8.34 | CCCN1C(=O)CN(C)C(=O)CNC(=O)[C@H]([C@@H](C)CC)NC(=O)[C@H](CC(C)C)N(C)C(=O)C[C@@H](C(=O)N(C)C)N(C)C(=O)[C@H](C2CCCC2)N(C)C(=O)C2(CCC2)NC(=O)[C@@H]2CCCN2C(=O)[C@H](CCc2ccc(C(F)(F)F)c(Cl)c2)NC(=O)CN(C)C(=O)[C@@H]1Cc1ccc(C(F)(F)F)cc1 [PP0418] ([NMeL]IG[Sar][NPrPhe(4-CF3)][Sar][hPhe(3-Cl-4-CF3)]P[Ac4c][NMeGly(cPent)][NMeD]-NMe2; lactam N-11) | B (a compound having 3 or more and less than 10 is denoted as B) | C (A compound having a KD ratio of 0.1 or more and less than 3 is denoted as C) |
| 8.38 | CCCN1C(=O)CN(C)C(=O)CNC(=O)[C@H]([C@@H](C)CC)NC(=O)[C@H](CC(C)C)N(C)C(=O)C[C@@H](C(=O)N(C)C)N(C)C(=O)[C@H](C2CCCC2)N(C)C(=O)C2(CCCC2)NC(=O)[C@@H]2CC(F)(F)CN2C(=O)[C@H](CCc2ccc(C(F)(F)F)c(Cl)c2)NC(=O)CN(C)C(=O)[C@@H]1Cc1ccc(C(F)(F)F)cc1 [PP0419] ([NMeL]IG[Sar][NPrPhe(4-CF3)][Sar][hPhe(3-Cl-4-CF3)][Pro(4,4-F2)][Ac5c][NMeGly(cPent)][NMeD]-NMe2; lactam N-11) | B (a compound having 3 or more and less than 10 is denoted as B) | C (A compound having a KD ratio of 0.1 or more and less than 3 is denoted as C) |
| 8.92 | CCCN1C(=O)CN(C)C(=O)CNC(=O)[C@H]([C@@H](C)CC)NC(=O)[C@H](CC(C)C)N(C)C(=O)C[C@@H](C(=O)N(C)C)N(C)C(=O)[C@H](C2CCCC2)N(C)C(=O)C2(CCC2)NC(=O)[C@@H]2CC(F)(F)CN2C(=O)[C@H](CCc2ccc(C(F)(F)F)c(Cl)c2)NC(=O)CN(C)C(=O)[C@@H]1Cc1ccc(C(F)(F)F)cc1 [PP0420] ([NMeL]IG[Sar][NPrPhe(4-CF3)][Sar][hPhe(3-Cl-4-CF3)][Pro(4,4-F2)][Ac4c][NMeGly(cPent)][NMeD]-NMe2; lactam N-11) | B (a compound having 3 or more and less than 10 is denoted as B) | C (A compound having a KD ratio of 0.1 or more and less than 3 is denoted as C) |
| 8.70 | CCCN1C(=O)CN(C)C(=O)CNC(=O)[C@H]([C@@H](C)CC)NC(=O)[C@H](CC(C)C)N(C)C(=O)C[C@@H](C(=O)N(C)C)N(C)C(=O)[C@H](C2CCCC2)N(C)C(=O)C2(CCCC2)NC(=O)[C@@H]2C[C@@H](OCC)CN2C(=O)[C@H](CCc2ccc(C(F)(F)F)c(Cl)c2)NC(=O)CN(C)C(=O)[C@@H]1Cc1ccc(C(F)(F)F)cc1 [PP0421] ([NMeL]IG[Sar][NPrPhe(4-CF3)][Sar][hPhe(3-Cl-4-CF3)][Hyp](Et)[Ac5c][NMeGly(cPent)][NMeD]-NMe2; lactam N-11) | B (a compound having 3 or more and less than 10 is denoted as B) | C (A compound having a KD ratio of 0.1 or more and less than 3 is denoted as C) |
| 8.80 | CCCN1C(=O)CN(C)C(=O)CNC(=O)[C@H]([C@@H](C)CC)NC(=O)[C@H](CC(C)C)N(C)C(=O)C[C@@H](C(=O)N(C)C)N(C)C(=O)[C@H](C2CCCC2)N(C)C(=O)C2(CCC2)NC(=O)[C@@H]2C[C@@H](OCC)CN2C(=O)[C@H](CCc2ccc(C(F)(F)F)c(Cl)c2)NC(=O)CN(C)C(=O)[C@@H]1Cc1ccc(C(F)(F)F)cc1 [PP0422] ([NMeL]IG[Sar][NPrPhe(4-CF3)][Sar][hPhe(3-Cl-4-CF3)][Hyp](Et)[Ac4c][NMeGly(cPent)][NMeD]-NMe2; lactam N-11) | B (a compound having 3 or more and less than 10 is denoted as B) | B (a compound having 3 or more and less than 10 is denoted as B) |
| 8.66 | CCCN1C(=O)CN(C)C(=O)CN(CC)C(=O)[C@H]([C@@H](C)CC)NC(=O)[C@H](CC(C)C)N(C)C(=O)C[C@@H](C(=O)N(C)C)N(C)C(=O)[C@H](C2CCCC2)N(C)C(=O)C2(CCCC2)NC(=O)[C@@H]2C[C@@H](OCC)CN2C(=O)[C@H](CCc2ccc(C(F)(F)F)c(Cl)c2)NC(=O)CN(C)C(=O)[C@@H]1Cc1ccc(C(F)(F)F)cc1 [PP0427] ([NMeL]I[NEtG][Sar][NPrPhe(4-CF3)][Sar][hPhe(3-Cl-4-CF3)][Hyp](Et)[Ac5c][NMeGly(cPent)][NMeD]-NMe2; lactam N-11) | B (a compound having 3 or more and less than 10 is denoted as B) | C (A compound having a KD ratio of 0.1 or more and less than 3 is denoted as C) |
| 8.59 | CCCN1C(=O)[C@@H]2CCN2C(=O)[C@H](C)N(C)C(=O)[C@H]([C@@H](C)CC)NC(=O)[C@H](CC(C)C)N(C)C(=O)C[C@@H](C(=O)N(C)C)N(C)C(=O)[C@H](C2CCCC2)N(C)C(=O)C2(CCC2)NC(=O)[C@@H]2CCCN2C(=O)[C@H](CCc2ccc(C(F)(F)F)c(Cl)c2)NC(=O)CN(C)C(=O)[C@@H]1Cc1ccc(C(F)(F)F)cc1 [PP0435] ([NMeL]I[NMeA][Aze][NPrPhe(4-CF3)][Sar][hPhe(3-Cl-4-CF3)]P[Ac4c][NMeGly(cPent)][NMeD]-NMe2; lactam N-11) | C (A compound having a KD ratio of 0.1 or more and less than 3 is denoted as C) | C (A compound having a KD ratio of 0.1 or more and less than 3 is denoted as C) |
